The target in this test is T1, Parkin ligase (Homo sapiens, UniProt O60260).
T1 sequence (O60260 1-465): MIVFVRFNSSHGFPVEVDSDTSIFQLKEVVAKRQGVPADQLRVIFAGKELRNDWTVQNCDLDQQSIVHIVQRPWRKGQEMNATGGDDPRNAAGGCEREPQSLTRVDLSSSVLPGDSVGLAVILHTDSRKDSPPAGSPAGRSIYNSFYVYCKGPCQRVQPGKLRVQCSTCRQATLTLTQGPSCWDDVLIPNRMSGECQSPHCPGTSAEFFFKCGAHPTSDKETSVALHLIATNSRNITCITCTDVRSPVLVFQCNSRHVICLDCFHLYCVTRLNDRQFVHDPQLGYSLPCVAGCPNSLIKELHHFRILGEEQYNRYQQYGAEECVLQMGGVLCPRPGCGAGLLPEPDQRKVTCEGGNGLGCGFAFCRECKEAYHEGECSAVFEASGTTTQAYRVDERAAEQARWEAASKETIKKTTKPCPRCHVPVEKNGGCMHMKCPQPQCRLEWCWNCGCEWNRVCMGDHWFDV
Put plainly: Activity-Based Probe Assay using Ubiquitin vinyl sulfone probe (TR-FRET). Format: biochemical. The settings on record: heat activated Parkin, HA-Ub-VS probe, activation EC50; read-out: Probe Assay EC50 (μM) [Example 2]. The procedure, abridged: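 Heat-activated His-Parkin (5 min, 58 °C; 40 nM) was preincubated 15 min with compound, then reacted 60 min at 22 °C with 70 nM HA-Ub-VS in 50 mM HEPES pH 8.5, 150 mM NaCl, 0.01% Tween 20, 0.1% BSA. Probe labelling was read by anti-His-Eu/anti-HA-XL665 TR-FRET (665/615 ratio). % activation was normalized to DMSO and 100 nM control activator, then fitted with a four-parameter curve (Bottom=0, Top=100).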
A general note: In TR-FRET formats the signal depends on donor and acceptor labels being close together.

The term EC50 denotes the concentration at which the effect is half-maximal.

Values joined by “and” are separate entries in the source; they are usually repeats but may differ in a detail not shown here. Identical values can stand only once.

Take `Cc1ccccc1C(=O)Nc1nc(NC(=O)c2ccccc2C)n(-c2ccc(F)cc2F)n1` [Compound 46]: the 50% effective concentration (EC50) turned out to be 6 µM.

For the compound `Cc1ccccc1C(=O)Nc1nc(NCc2ccccc2)nn1-c1ccc(C(F)(F)F)cc1` [Compound 102], the 50% effective concentration (EC50) stood at 2 µM. Turning to `Cc1ccccc1C(=O)Nc1nc(NC(=O)c2ccncc2)nn1-c1ccccc1` [Compound 34], the 50% effective concentration (EC50) was determined as 2 µM. In the case of `Cc1ccccc1C(=O)Nc1nc(NC(=O)c2ccccc2C)n(-c2ccc(N3CCCCC3)cc2)n1` [Compound 44], the EC50 was found to be 3 µM. In the case of `Cc1ccccc1C(=O)Nc1nc(NC(=O)c2cnccn2)n(-c2ccccc2)n1` [Compound 17], the EC50 worked out at 10 µM. With `Cc1ccccc1C(=O)Nc1nc(NC(=O)c2ccccc2C)n(-c2ccc(C(F)(F)F)cc2)n1` [Compound 25], the concentration giving a half-maximal response (EC50) was 0.9 µM and 2 µM.

Take `Cc1ccccc1C(=O)Nc1nc(NC(=O)c2ccno2)n(-c2ccccc2)n1` [Compound 7]: the EC50 turned out to be 12 µM.

Regarding `Cc1ccccc1C(=O)Nc1nc(NC(=O)c2ccccc2C)n(-c2ccccc2F)n1` [Compound 32], the half-maximal effective concentration (EC50) was 9 µM. Consider `Cc1ccccc1C(=O)Nc1nc(NC(=O)c2ccccc2C)n(-c2ccc(F)c(F)c2)n1` [Compound 24], for which the concentration giving a half-maximal response (EC50) came to 3 µM. Regarding `Cc1cccc(-n2nc(NC(=O)c3ccccc3C)nc2NC(=O)c2ccccc2C)c1` [Compound 38], the concentration giving a half-maximal response (EC50) worked out at 5 µM.

For the compound `COc1ccccc1C(=O)Nc1nc(NC(=O)c2ccccc2OC)n(-c2ccccc2)n1` [Compound 23], the concentration for a half-maximal effect (EC50) was 10 µM.

For `Cc1ccccc1C(=O)Nc1nc(NC(=O)c2ccccc2C)n(-c2ccc(C#N)cc2)n1` [Compound 35], the half-maximal effective concentration (EC50) was 3 µM. Then `C#Cc1ccc(C(=O)Nc2nc(NC(=O)c3cccc(N=[N+]=[N-])c3)n(-c3ccccc3)n2)cc1` [Compound 2], with 4 µM; and `COc1ccc(C(=O)Nc2nc(NC(=O)c3ccc(OC)cc3)n(-c3ccccc3)n2)cc1` [Compound 37], with 4 µM; and `O=C(Nc1nc(NC(=O)c2ccncc2)n(-c2ccccc2)n1)c1ccncc1` [Compound 33], with 3 µM. `Cc1ccccc1C(=O)Nc1nc(NC(=O)c2ccccc2C)n(-c2ccccc2Cl)n1` [Compound 26]: the EC50 is 6 µM. For `Cc1ccccc1C(=O)Nc1nc(NC(=O)c2ccccc2C)n(-c2ccc(OC(F)(F)F)cc2)n1` [Compound 42, N,N′-(1-(4-(trifluoromethoxy)phenyl)-1H-1,2,4-triazole-3,5-diyl)bis(2-methylbenzamide)], the concentration giving a half-maximal response (EC50) is 1 µM and 3 µM. Then `O=C(Nc1nc(NC(=O)c2cccnc2)n(-c2ccccc2)n1)c1cccnc1` [Compound 40], with 1 µM.

Consider `Cc1ccc(C(=O)Nc2nc(NC(=O)c3ccc(C)cc3)n(-c3ccccc3)n2)cc1` [Compound 21], for which the EC50 stood at 5 µM.

As for `O=C(Nc1nc(NC(=O)c2ccccn2)n(-c2ccccc2)n1)c1ccccn1` [Compound 41], the EC50 was found to be 2 µM. As for `Cc1ccc(-n2nc(NC(=O)c3ccccc3C)nc2NC(=O)c2ccccc2C)cc1` [Compound 31], the concentration for a half-maximal effect (EC50) was 4 µM. Consider `Cc1ccccc1C(=O)Nc1nc(NC(=O)c2ccccc2C)n(-c2cccc(F)c2)n1` [Compound 39], for which the EC50 turned out to be 4 µM.

Consider `Cc1ccccc1C(=O)Nc1nc(NC(=O)c2ccccc2C)n(-c2cccc(Cl)c2)n1` [Compound 36], for which the EC50 was 3 µM and 4 µM. Then `Cc1ccccc1C(=O)Nc1nc(NC(=O)C2CCCN2)nn1-c1ccccc1` (stereo not drawn) [Compound 20], with 2 µM; and `Cc1ccccc1C(=O)Nc1nc(NC(=O)c2ccccn2)nn1-c1ccccc1` [Compound 16], with 3 µM. As to `Cc1ccccc1C(=O)Nc1nc(NC(=O)c2cccnc2)nn1-c1ccccc1` [Compound 6], the concentration for a half-maximal effect (EC50) came out at 2 µM. Then `Cc1ccnc(-c2nc(NC(=O)c3ccccc3C)n(-c3ccccc3)n2)c1` [Compound 124], with 3 µM.

For the origin of these results see patent publication US10889553B2, “Asymmetric triazole benzamide derivatives and the compositions and methods of treatment regarding the same” (NysnoBio Ireland DAC, priority 2017, dated 2021).
